Results taken from ChEMBL document CHEMBL1146827, “Synthesis and evaluation as sialidase inhibitors of xylo-configured cyclohexenephosphonates carrying glycerol side-chain mimics” (Bioorg Med Chem Lett, 2004).

Key:
[1] = Compound was tested for inhibitory activity against sialidase from Salmonella Typhimurium; design: species or system Salmonella enterica subsp. enterica serovar Typhimurium
[2] = Compound was tested for inhibitory activity against sialidase from Vibrio cholerae
[3] = Compound was tested for inhibitory activity against sialidase from Clostridium perfringens; n.a. = not active

Row | SMILES | IC50 [1] | IC50 [2] | IC50 [3]
1 | C=CCO[C@@H]1CC(P(=O)(O)O)=C[C@H](O)[C@H]1NC(C)=O.CCN(CC)CC.CCN(CC)CC | < 2000 µM | 1500 µM | Not Active
2 | CC(=O)N[C@@H]1[C@@H](O)C=C(P(=O)(O)O)C[C@H]1OCC(O)CO.N.N (stereo partly specified) | > 4000 µM |  | Not Active
3 | CC(=O)N[C@@H]1[C@H](O)C=C(P(=O)(O)O)C[C@H]1OCCO.N.N | 1800 µM | 1600 µM | Not Active
4 | CC(=O)N[C@H]1[C@H](O)CC(P(=O)(O)O)=C[C@@H]1O.N.N | 1000 µM | 1800 µM | Not Active
